Where two headings read alike, the source gives them in different places.
Biological target: T1, STAT6 (Homo sapiens, UniProt P42226)
T1 construct: endogenous in cells; host or cells: MOLM-16, KU-812, SKNO1, MB231, L1236
T1 sequence (P42226 1-847): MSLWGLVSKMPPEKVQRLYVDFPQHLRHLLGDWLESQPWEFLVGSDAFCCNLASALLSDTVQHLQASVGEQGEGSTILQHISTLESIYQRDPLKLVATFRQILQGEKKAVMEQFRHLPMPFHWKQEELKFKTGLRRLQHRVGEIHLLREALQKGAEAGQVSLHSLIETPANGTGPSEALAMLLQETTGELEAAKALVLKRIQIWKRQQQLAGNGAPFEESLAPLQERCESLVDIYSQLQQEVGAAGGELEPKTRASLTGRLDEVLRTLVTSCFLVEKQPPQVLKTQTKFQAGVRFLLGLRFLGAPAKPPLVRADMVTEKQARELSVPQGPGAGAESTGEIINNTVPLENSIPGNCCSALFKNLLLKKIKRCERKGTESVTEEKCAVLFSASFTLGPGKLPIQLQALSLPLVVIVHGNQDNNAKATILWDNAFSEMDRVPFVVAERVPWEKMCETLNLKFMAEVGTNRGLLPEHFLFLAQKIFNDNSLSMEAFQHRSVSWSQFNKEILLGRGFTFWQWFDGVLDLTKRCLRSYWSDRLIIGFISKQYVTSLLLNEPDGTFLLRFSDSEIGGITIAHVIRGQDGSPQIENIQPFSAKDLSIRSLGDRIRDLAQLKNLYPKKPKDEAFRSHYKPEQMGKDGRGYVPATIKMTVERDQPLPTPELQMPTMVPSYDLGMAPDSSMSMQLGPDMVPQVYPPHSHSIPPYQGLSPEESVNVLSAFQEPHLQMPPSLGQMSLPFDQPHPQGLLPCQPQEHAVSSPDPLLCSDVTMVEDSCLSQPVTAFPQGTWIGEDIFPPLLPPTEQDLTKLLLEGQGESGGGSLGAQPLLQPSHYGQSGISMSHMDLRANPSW
Assay: Immunoblotting (Western blot) analysis of STAT6 degradation efficiency of degraders in treated cells
Assay type: cell-based
Method in brief: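 Each data point uses roughly one million cells dosed as indicated; pellets are lysed on ice, freeze-thawed, and clarified. Reduced, denatured samples (95 °C, 5 min) run on SDS gels, then membranes receive rabbit mAbs to STAT5 or STAT6 plus mouse anti-GAPDH overnight, followed by dye-labelled secondaries for fluorescence imaging.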

[1] = L1236 cells, read-out: DC50 S6 L1236
[2] = MOLM-16 cells, class symbols, read-out: DC50 S6 MOLM-16

| SMILES | DC50 [1] | DC50 [2] |
| --- | --- | --- |
| Cc1ncsc1-c1ccc([C@H](C)NC(=O)[C@@H]2C[C@@H](O)CN2C(=O)[C@@H](NC(=O)CCCCCCNC(=O)COc2ccc3c(c2)CN(C(=O)[C@@H](NC(=O)c2cc4cc(C(F)(F)P(=O)(O)O)ccc4s2)C(C)(C)C)[C@H](C(=O)N2CCO[C@H](c4ccccc4)C2)C3)C(C)(C)C)cc1 [Compound 466, (difluoro(2-(((S)-1-((S)-7-(2-((7-(((S)-1-((2S,4R)-4-hydroxy-2-(((S)-1-(4-(4-methylthiazol-5-yl)phenyl)ethyl)carbamoyl)pyrrolidin-1-yl)-3,3-dimethyl-1-oxobutan-2-yl)amino)-7-oxoheptyl)amino)-2-oxoethoxy)-3-((R)-2-phenylmorpholine-4-carbonyl)-3,4-dihydroisoquinolin-2(1H)-yl)-3,3-dimethyl-1-oxobutan-2-yl)carbamoyl)benzo[b]thiophen-5-yl)methyl)phosphonic acid] | > 10 µM | > 10 µM |
| Cc1ncsc1-c1ccc([C@H](C)NC(=O)[C@@H]2C[C@@H](O)CN2C(=O)[C@@H](NC(=O)CCCCCCCCCNC(=O)COc2ccc3c(c2)CN(C(=O)[C@@H](NC(=O)c2cc4cc(C(F)(F)P(=O)(O)O)ccc4s2)C(C)(C)C)[C@H](C(=O)N2CCC[C@H](c4ccccc4)C2)C3)C(C)(C)C)cc1 [Compound 478, (difluoro(2-(((S)-1-((S)-7-(2-((10-(((S)-1-((2S,4R)-4-hydroxy-2-(((S)-1-(4-(4-methylthiazol-5-yl)phenyl)ethyl)carbamoyl)pyrrolidin-1-yl)-3,3-dimethyl-1-oxobutan-2-yl)amino)-10-oxodecyl)amino)-2-oxoethoxy)-3-((R)-3-phenylpiperidine-1-carbonyl)-3,4-dihydroisoquinolin-2(1H)-yl)-3,3-dimethyl-1-oxobutan-2-yl)carbamoyl)benzo[b]thiophen-5-yl)methyl)phosphonic acid] | – | > 10 µM |
| Cc1ncsc1-c1ccc([C@H](CC(=O)NCCCCCCCCCC(=O)N[C@H]2C[C@@H](C(=O)N3CCO[C@H](c4ccccc4)C3)N(C(=O)[C@@H](NC(=O)c3cc4cc(C(F)(F)P(=O)(O)O)ccc4s3)C(C)(C)C)C2)NC(=O)[C@@H]2C[C@@H](O)CN2C(=O)[C@@H](NC(=O)C2(F)CC2)C(C)(C)C)cc1 [Compound 572, (difluoro(2-(((S)-1-((2S,4S)-4-(10-((S)-3-((2S,4R)-1-((S)-2-(1-fluorocyclopropane-1-carboxamido)-3,3-dimethylbutanoyl)-4-hydroxypyrrolidine-2-carboxamido)-3-(4-(4-methylthiazol-5-yl)phenyl)propanamido)decanamido)-2-((R)-2-phenylmorpholine-4-carbonyl)pyrrolidin-1-yl)-3,3-dimethyl-1-oxobutan-2-yl)carbamoyl)benzo[b]thiophen-5-yl)methyl)phosphonic acid] | – | > 10 µM |
| Cc1ncsc1-c1ccc([C@H](C)NC(=O)[C@@H]2C[C@@H](O)CN2C(=O)[C@@H](NC(=O)CNC(=O)CC(=O)N2CCN(C(=O)[C@@H](NC(=O)c3cc4cc(C(F)(F)P(=O)(O)O)ccc4s3)C(C)(C)C)[C@H](C(=O)N3CCO[C@H](c4ccccc4)C3)C2)C(C)(C)C)cc1 [Compound 443, (difluoro(2-(((S)-1-((S)-4-(3-((2-(((S)-1-((2S,4R)-4-hydroxy-2-(((S)-1-(4-(4-methylthiazol-5-yl)phenyl)ethyl)carbamoyl)pyrrolidin-1-yl)-3,3-dimethyl-1-oxobutan-2-yl)amino)-2-oxoethyl)amino)-3-oxopropanoyl)-2-((R)-2-phenylmorpholine-4-carbonyl)piperazin-1-yl)-3,3-dimethyl-1-oxobutan-2-yl)carbamoyl)benzo[b]thiophen-5-yl)methyl)phosphonic acid] | > 10 µM | > 10 µM |
| CC(C)(C)[C@H](NC(=O)c1cc2cc(C(F)(F)P(=O)(O)O)ccc2s1)C(=O)N1CCN(C(=O)CC(=O)NCC#Cc2ccc3c(c2)C(=O)N(C2CCC(=O)NC2=O)C3=O)C[C@H]1C(=O)N1CCO[C@H](c2ccccc2)C1 (stereo partly drawn) [Compound 508, ((2-(((2S)-1-((2S)-4-(3-((3-(2-(2,6-dioxopiperidin-3-yl)-1,3-dioxoisoindolin-5-yl)prop-2-yn-1-yl)amino)-3-oxopropanoyl)-2-((R)-2-phenylmorpholine-4-carbonyl)piperazin-1-yl)-3,3-dimethyl-1-oxobutan-2-yl)carbamoyl)benzo[b]thiophen-5-yl)difluoromethyl)phosphonic acid] | – | > 10 µM |
| CC(C)(C)[C@H](NC(=O)c1cc2cc(C(F)(F)P(=O)(O)O)ccc2s1)C(=O)N1Cc2cc(OCC(=O)NCC#Cc3ccc4c(c3)C(=O)N(C3CCC(=O)NC3=O)C4=O)ccc2C[C@H]1C(=O)N1CCC[C@H](c2ccccc2)C1 (stereo partly drawn) [Compound 550, ((2-(((2S)-1-((3S)-7-(2-((3-(2-(2,6-dioxopiperidin-3-yl)-1,3-dioxoisoindolin-5-yl)prop-2-yn-1-yl)amino)-2-oxoethoxy)-3-((R)-3-phenylpiperidine-1-carbonyl)-3,4-dihydroisoquinolin-2(1H)-yl)-3,3-dimethyl-1-oxobutan-2-yl)carbamoyl)benzo[b]thiophen-5-yl)difluoromethyl)phosphonic acid] | – | > 10 µM |
| CC(C)(C)[C@H](NC(=O)c1cc2cc(C(F)(F)P(=O)(O)O)ccc2s1)C(=O)N1CCN(C(=O)CC(=O)NCCC#Cc2cccc3c2C(=O)N(C2CCC(=O)NC2=O)C3=O)C[C@H]1C(=O)N1CCO[C@H](c2ccccc2)C1 (stereo partly drawn) [Compound 509, ((2-(((2S)-1-((2S)-4-(3-((4-(2-(2,6-dioxopiperidin-3-yl)-1,3-dioxoisoindolin-4-yl)but-3-yn-1-yl)amino)-3-oxopropanoyl)-2-((R)-2-phenylmorpholine-4-carbonyl)piperazin-1-yl)-3,3-dimethyl-1-oxobutan-2-yl)carbamoyl)benzo[b]thiophen-5-yl)difluoromethyl)phosphonic acid] | – | > 10 µM |
| CC(C)(C)[C@H](NC(=O)c1cc2cc(C(F)(F)P(=O)(O)O)ccc2s1)C(=O)N1CCN(C(=O)CC(=O)NCCC#Cc2ccc3c(c2)C(=O)N(C2CCC(=O)NC2=O)C3=O)C[C@H]1C(=O)N1CCC[C@H](c2ccccc2)C1 (stereo partly drawn) [Compound 524, ((2-(((2S)-1-((2S)-4-(3-((4-(2-(2,6-dioxopiperidin-3-yl)-1,3-dioxoisoindolin-5-yl)but-3-yn-1-yl)amino)-3-oxopropanoyl)-2-((R)-3-phenylpiperidine-1-carbonyl)piperazin-1-yl)-3,3-dimethyl-1-oxobutan-2-yl)carbamoyl)benzo[b]thiophen-5-yl)difluoromethyl)phosphonic acid] | – | > 10 µM |
| Cc1ncsc1-c1ccc([C@H](C)NC(=O)[C@@H]2C[C@@H](O)CN2C(=O)[C@@H](NC(=O)CCCCCCCCCNC(=O)CC(=O)N2CCN(C(=O)[C@@H](NC(=O)c3cc4cc(C(F)(F)P(=O)(O)O)ccc4s3)C(C)(C)C)[C@H](C(=O)N3CCO[C@H](c4ccccc4)C3)C2)C(C)(C)C)cc1 [Compound 451, (difluoro(2-(((S)-1-((S)-4-(3-((10-(((S)-1-((2S,4R)-4-hydroxy-2-(((S)-1-(4-(4-methylthiazol-5-yl)phenyl)ethyl)carbamoyl)pyrrolidin-1-yl)-3,3-dimethyl-1-oxobutan-2-yl)amino)-10-oxodecyl)amino)-3-oxopropanoyl)-2-((R)-2-phenylmorpholine-4-carbonyl)piperazin-1-yl)-3,3-dimethyl-1-oxobutan-2-yl)carbamoyl)benzo[b]thiophen-5-yl)methyl)phosphonic acid] | > 10 µM | > 10 µM |
| Cc1ncsc1-c1ccc([C@H](C)NC(=O)[C@@H]2C[C@@H](O)CN2C(=O)[C@@H](NC(=O)CCNC(=O)CO[C@H]2C[C@@H](C(=O)N3CCC[C@H](c4ccccc4)C3)N(C(=O)[C@@H](NC(=O)c3cc4cc(C(F)(F)P(=O)(O)O)ccc4s3)C(C)(C)C)C2)C(C)(C)C)cc1 [Compound 435, (difluoro(2-(((S)-1-((2S,4S)-4-(2-((3-(((S)-1-((2S,4R)-4-hydroxy-2-(((S)-1-(4-(4-methylthiazol-5-yl)phenyl)ethyl)carbamoyl)pyrrolidin-1-yl)-3,3-dimethyl-1-oxobutan-2-yl)amino)-3-oxopropyl)amino)-2-oxoethoxy)-2-((R)-3-phenylpiperidine-1-carbonyl)pyrrolidin-1-yl)-3,3-dimethyl-1-oxobutan-2-yl)carbamoyl)benzo[b]thiophen-5-yl)methyl)phosphonic acid] | > 10 µM | > 10 µM |

Source: patent US20230295197A1, “STAT5 and STAT6 Degraders and Uses Thereof” (REGENTS OF THE UNIVERSITY OF MICHICAN, priority 2022, published 2023)
